Measured values taken from patent US5234944A (priority 1986, dated 1993).
Read-outs that look alike come from different tables or passages of the source.

How the values were obtained:
[1] = target: T1, opiated receptor K (Cavia porcellus, UniProt P41144); experiment: Liaison with the opiated receptor K in vitro (displacement of 3H ethylketocyclazocine); type: binding; details: guinea-pig cerebella membranes, 3H ethylketocyclazocine 1 nM, Tris pH 7.7, 25° C., 40 minutes
T1 construct: Membrane residue prepared from the cerebella of guinea-pigs; from tissue; host or cells: guinea-pig cerebellum membranes
T1 sequence (P41144 whole entry): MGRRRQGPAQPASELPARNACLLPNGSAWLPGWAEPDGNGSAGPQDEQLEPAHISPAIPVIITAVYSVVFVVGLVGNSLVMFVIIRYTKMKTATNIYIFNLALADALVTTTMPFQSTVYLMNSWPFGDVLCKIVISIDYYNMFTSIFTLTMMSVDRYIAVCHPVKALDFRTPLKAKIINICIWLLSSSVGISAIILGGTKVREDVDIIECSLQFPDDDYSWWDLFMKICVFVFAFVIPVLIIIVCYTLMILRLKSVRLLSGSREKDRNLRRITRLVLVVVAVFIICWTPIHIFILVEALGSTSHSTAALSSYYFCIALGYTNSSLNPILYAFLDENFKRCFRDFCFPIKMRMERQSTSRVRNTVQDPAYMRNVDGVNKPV

[2] = type: in vivo, rat; details: intravenous, aconitine 5 minutes after
[3] = Hypotensive activity on the anaesthetized rat; type: in vivo, rat (Sprague Dawley); details: injected into jugular vein
[4] = Measurement of the diuretic activity; type: in vivo, rat (Sprague Dawley); details: oral, t1h-t5h
Procedure: 4) Measurement of the diuretic activity
Male rats of Sprague Dawley strain weighing 180 to 200 g were not fed for 17 hours before the test, but received water ad libitum. Groups of 8 animals were set up for each dose tested and the rats received the product under test or its vehicle orally. The urinary volume was measured every hour for the 5 hours following the administration of the product. At the end of this period, the urines were collected and the activity of the product was expressed as a percentage of variation calculated on the urinary volume corresponding to the period t1h -t5h.

[5] = 50% inhibiting concentration (IC50)
[6] = read-out: 50% inhibiting concentration (IC50)

| Structure (SMILES) | IC50 [1, 5] [nM] | variation of arterial pressure, 5 min. after administration ([3]; dose 1 mg/kg) [%] | variation of arterial pressure, 30 min. after administration ([3]; dose 1 mg/kg) [%] | also measured |
| --- | --- | --- | --- | --- |
| CN(C(=O)Cc1ccc([N+](=O)[O-])cc1)[C@@H]1c2ccccc2C[C@H]1N1CCCC1 (relative stereo) [Example 16, [Trans (±)]N-[2,3-dihydro-2-(1-pyrrolidinyl)-1H-inden-1-yl]-N-methyl-4-nitro-benzene-acetamide (isomer A)] | 5 |  |  |  |
| CN(C)[C@@H]1Cc2ccccc2[C@H]1N(C)C(=O)Cc1ccc(Cl)c(Cl)c1 (relative stereo) [Example 25, [Trans (±)]3,4-dichloro-N-[2,3-dihydro-2-(dimethylamino)-1H-inden-1-yl]-N-methyl-benzene-acetamide] | 2.2 |  |  |  |
| CC(C(=O)N(C)[C@@H]1c2ccccc2C[C@H]1N1CCCC1)c1ccc(Cl)c(Cl)c1 (mixture of isomers) [Example 22, [Trans (±)]3,4-dichloro-N-[2,3-dihydro-2-(1-pyrrolidinyl)-1H-inden-1-yl]-N-α-dimethyl-benzene-acetamide] |  |  |  | IC50 [1, 6]: 7.1 nM |
| CN(C(=O)Cc1ccc(C(F)(F)F)cc1)[C@@H]1c2ccccc2C[C@H]1N1CCCC1 (relative stereo) [Example 5, [Trans (±)]N-[2,3-dihydro-2-(1-pyrrolidinyl)-1H-inden-1-yl]-N-methyl 4-(trifluoromethyl)-benzene-acetamide] | 3 | -20 | -20 | percentage of extension of time of appearance of disturbances of the cardiac rhythm ([2]; dose 10 mg/kg): +15.6%; variation of arterial pressure, 5 min. after administration ([3]; dose 10 mg/kg): -25%; variation of arterial pressure, 30 min. after administration ([3]; dose 10 mg/kg): -10% |
| CN(C(=O)Cc1ccc([N+](=O)[O-])cc1)[C@@H]1c2ccccc2C[C@H]1N1CCCC1 (relative stereo) [Example 8, [Trans (±)]N-[2,3-dihydro-2-(1-pyrrolidinyl)-1H-inden-1-yl]-N-methyl-4-nitro-benzene-acetamide] | 7.1 | -25 | -27 | percentage of extension of time of appearance of disturbances of the cardiac rhythm ([2]; dose 5 mg/kg): +23%; percentage of variation of the urinary volume ([4]; dose 2.5 mg/kg): +124%; percentage of variation of the urinary volume ([4]; dose 5 mg/kg): +130% |
| CN(C(=O)Cc1cccc(C(F)(F)F)c1)[C@@H]1c2ccccc2C[C@H]1N1CCCC1 (relative stereo) [Example 6, [Trans (±)]N-[2,3-dihydro-2-(1-pyrrolidinyl)-1H-inden-1-yl]-N-methyl-3-(trifluoromethyl)-benzene-acetamide] | 7.5 |  |  |  |
| CN(C(=O)Cc1ccc(Cl)c(Cl)c1)[C@H]1[C@H](N2CCCC2)c2ccccc2C12CCOCC2 (relative stereo) [Example 4, [trans (±)]3,4-dichloro-N-[2,2',3,3',5',6'-hexahydro-3-(1-pyrrolidinyl)-spiro (1H-inden-1-,4'-(4H)-pyran]-2-yl]-N-methyl-benzene-acetamide] |  |  |  | variation of arterial pressure, 5 min. after administration ([3]; dose 10 mg/kg): -26%; variation of arterial pressure, 30 min. after administration ([3]; dose 10 mg/kg): -14% |
| CN(C(=O)Cc1ccc(Cl)c(Cl)c1)[C@H]1[C@H](N2CCCC2)c2ccccc2C1(C)C (relative stereo) [Example 29, [Trans (±)]3,4-dichloro-N-[2,3-dihydro-1,1-dimethyl-3-(1-pyrrolidinyl)-1H-inden-2-yl]-N-methyl-benzene-acetamide] | 5.6 |  |  |  |
| CN(C(=O)COc1ccc(Cl)c(Cl)c1)[C@@H]1c2ccccc2C[C@H]1N1CCCC1 (relative stereo) [Example 14, [trans (±)]2-(3,4-dichlorophenoxy)-N-[2,3-dihydro-2-(1-pyrrolidinyl)-1H-inden-1-yl]-N-methyl-acetamide] |  | -22 | -26 | IC50 [1, 6]: 3.8 nM; percentage of variation of the urinary volume ([4]; dose 5 mg/kg): +68% |
